In one assay the target is SOS1-KRAS (Homo sapiens, UniProt P01116, G12D). In words: Inhibition of GST-tagged KRAS G12D mutant (2 to 169 residues) (unknown origin)/SOS1 catalytic domain (564 to 1069 residues) (unknown origin) protein-protein interaction preincubated with compound for 60 mins followed by SOS1 and GTP-DY-647P1 addition and measured after 30 mins by fluorescence based nucleotide exchange assay. The class given is protein-complex assay.

A short description of assay [1]: Inhibition of GST-tagged KRAS G12V mutant (2 to 169 residues) (unknown origin)/SOS1 catalytic domain (564 to 1069 residues) (unknown origin) protein-protein interaction preincubated with compound for 60 mins followed by SOS1 and GTP-DY-647P1 addition and measured after 90 mins by fluorescence based nucleotide exchange assay. Further details: species or system Homo sapiens.

For orientation: IC50 means the concentration needed to halve the response being measured. On to `CC1(O)CCCCN(c2nc(OC[C@@]34CCCN3C[C@H](F)C4)nc(N3CC4(CCc5sc(N)c(C#N)c54)C3)n2)C1` (some centres undefined), for which the IC50 was 0.01 µM at SOS1-KRAS and less than 0.01 µM in assay [1].
As to `N#Cc1c(N)sc2c1C1(CC2)CN(c2nc(OC[C@@]34CCCN3C[C@H](F)C4)nc(N3CCCC4(C3)NC(=O)NC4=O)n2)C1` (some centres undefined), the half-maximal inhibitory concentration (IC50) (at SOS1-KRAS; in assay [1]) was less than 0.01 µM in each case.
For the molecule `N#Cc1c(N)sc2c1C1(CC2)CN(c2nc(OC[C@@]34CCCN3C[C@H](F)C4)nc(N3CCCCC(O)C3)n2)C1` (some centres undefined), the figures for the IC50 (at SOS1-KRAS; in assay [1]) were 0.01 µM and less than 0.01 µM, respectively.
For `C[C@@]1(O)CCCN(c2nc(OC[C@@]34CCCN3C[C@H](F)C4)nc(N3CC4(C3)SCc3sc(N)c(C#N)c34)n2)C1`, the IC50 (at SOS1-KRAS; in assay [1]) was less than 0.01 µM throughout.
For `N#Cc1c(N)sc2c1C1(CC2)CN(c2nc(OC[C@@]34CCCN3C[C@H](F)C4)nc(N3CCCC(C#N)CC3)n2)C1` (some centres undefined), the IC50 is 0.01 µM at SOS1-KRAS and less than 0.01 µM in assay [1].
The like results for `N#Cc1c(N)sc2c1C1(CC2)CN(c2nc(OCC3(CN4CCOCC4)CC3)nc(N3C[C@H]4CC[C@@H](C3)N4)n2)C1` were, in that order, less than 0.01 µM and 0.01 µM.
Turning to `CN(C)CC1(COc2nc(N3CC4(CCc5sc(N)c(C#N)c54)C3)nc(N3CCC[C@@](C)(O)C3)n2)CC1(F)F` (some centres undefined), the IC50 (on SOS1-KRAS; in assay [1]) was less than 0.01 µM in each case.
For `C[C@@]1(O)CCCN(c2nc(OC[C@@]34CCCN3C[C@H](F)C4)nc(N3CC4(CCc5sc(N)c(C#N)c54)C3)n2)C1`, the IC50 (on SOS1-KRAS; in assay [1]) was less than 0.01 µM throughout.
As for `C[C@@]1(O)C[C@@H](O)CN(c2nc(OC[C@@]34CCCN3C[C@H](F)C4)nc(N3CC4(CCc5sc(N)c(C#N)c54)C3)n2)C1`, the IC50 (on SOS1-KRAS; in assay [1]) was less than 0.01 µM throughout.
For `CC1(O)CCN(c2nc(OCC3(CN4CCOCC4)CC3)nc(N3CC4(CCc5sc(N)c(C#N)c54)C3)n2)CC1`, the IC50 (at SOS1-KRAS; in assay [1]) was less than 0.01 µM each time.
`C=C1CN2CCCC2(COc2nc(N3CC4(CCc5sc(N)c(C#N)c54)C3)nc(N3CCC[C@@](C)(O)C3)n2)C1` (some centres undefined): the IC50 (at SOS1-KRAS; in assay [1]) was less than 0.01 µM in each case.
`N#Cc1c(N)sc2c1C1(CC2)CN(c2nc(OCC3(CN4CCOCC4)CC3)nc(N3CCCC4(C3)NC(=O)NC4=O)n2)C1` (centres undefined): the IC50 (on SOS1-KRAS; in assay [1]) was less than 0.01 µM throughout.
